Values quoted from earlier work in PMC5862601 (Oncotarget, 2018).
Where two headings read alike, the source gives them in different places.

Assays:
[1] = system: Ovarian cancer cell line Caov-4; parameters: method as in Hajiahmadi S, et al. Res Pharm Sci. 2015; 10: 43-51. [24]; details: ref Hajiahmadi S, et al. Res Pharm Sci. 2015, 10: 43-51. [24]; cited from earlier work
A2B receptor (CHO-A2B) = details: ref De Filippo E, et al. Purinergic Signal. 2016;12: 313-329. [11]; cited from earlier work
[2] = system: HMEC-1 human microvascular endothelial cell line; parameters: method as in Feoktistov I, et al. Circ Res. 2002; 90:531-538. [21]; details: ref Feoktistov I, et al. Circ Res. 2002, 90:531-538. [21]; cited from earlier work
[3] = system: PC12 (rat) phaeochromocytoma cells; details: cited from earlier work
[4] = system: HUVEC Human Umbilical Vein Endothelial Cells; parameters: method as in Feoktistov I, et al. Circ Res. 2002; 90: 531-538. [21]; details: HUVEC (A2A > A2B); ref Feoktistov I, et al. Circ Res. 2002; 90: 531-538. [21]; cited from earlier work
[5] = system: Ovarian cancer cell line SKOV-3; parameters: method as in Hajiahmadi S, et al. Res Pharm Sci. 2015; 10: 43-51. [24]; details: ref Hajiahmadi S, et al. Res Pharm Sci. 2015, 10: 43-51. [24]; cited from earlier work
[6] = system: T24 human bladder carcinoma cells; details: cited from earlier work; for EC50: T24 human bladder carcinoma
[7] = system: Human prostatic carcinoma cells PC-3; parameters: method as in Wei Q, et al. Purinergic Signal. 2013; 9: 271-280. [23]; details: ref Wei Q, et al. Purinergic Signal. 2013, 9: 271-280. [23]; cited from earlier work
[8] = system: isolated perfused mouse heart; details: A2B knockout vs wildtype mice, ref [51]; cited from earlier work
[9] = system: HEK293 (native) cells, A2B ≥ A2A; details: cited from earlier work
[10] = system: Ovarian cancer cell line OVCAR-3; parameters: method as in Hajiahmadi S, et al. Res Pharm Sci. 2015; 10: 43-51. [24]; details: ref Hajiahmadi S, et al. Res Pharm Sci. 2015, 10: 43-51. [24]; cited from earlier work
Jurkat-T cells = details: cited from earlier work; for EC50: Jurkat-T, ref Van der Ploeg et al. Naunyn Schmiedeberg’s Arch Pharmacol. 1996, 353: 250-260. [22]
[11] = system: Breast cancer cell line MDA-MB-231; parameters: method as in Panjehpour M, et al. Br J Pharmacol. 2005; 145: 211-218. [25]; details: ref Panjehpour M, et al. Br J Pharmacol. 2005, 145: 211-218. [25]; cited from earlier work
[12] = system: prostate cancer cell lines (A2B > A2A); details: three prostate cancer cell lines (A2B > A2A); ref [13]; cited from earlier work
[13] = system: human ovarian cancer cell lines (A2B > A2A); details: three human ovarian cancer cell lines (A2B > A2A); ref [12]; cited from earlier work
HEK-A2B cells, A2B ≥ A2A = details: cited from earlier work
[14] = ref van der Ploeg et al. Naunyn Schmiedeberg’s Arch Pharmacol. 1996, 353: 250-260. [22], read-out: EC50
[15] = ref Gao Z, et al. Biochem Pharmacol. 2014, 90: 297-306. [17]

| Structure (SMILES) | EC50 [1] | EC50 [2] | EC50 [3, 14] | EC50 [4] | EC50 [5] | EC50 [7] | increase in coronary flow [8] | EC50 [10] | EC50 (Jurkat-T cells) | EC50 [11] | also measured |
| --- | --- | --- | --- | --- | --- | --- | --- | --- | --- | --- | --- |
| CCNC(=O)[C@H]1O[C@@H](n2cnc3c(N)nc(NCCc4ccc(CCC(=O)O)cc4)nc32)[C@H](O)[C@@H]1O [CGS-21680, (2-p-[2-carboxyethyl]phenethylamino)-5´-N-ethylcarboxamidoadenosine] | > 100 µM | > 100 µM | 90 nM | 469 nM | > 100 µM | > 10000 nM | increased coronary flow in A2B knockout (KO) mice to a significantly higher degree than in wildtype (WT) mice | > 100 µM | > 100 µM | > 10000 nM | EC50 (A2B receptor (CHO-A2B)): 31.1 µM; EC50 ([3]; ref Hide I, et al. Mol Pharmacol. 1992, 41: 352-359. [26], read-out: EC50): 64 nM; induction of cAMP accumulation ([6]; T24 (A2B > A2A), ref [45]): inactive; EC50 [6, 15]: > 10 µM; EC50 ([6]; ref Phelps PT, et al. Eur J Pharmacol. 2006, 536: 28-37. [20]): > 10 µM; EC50 ([9]; ref Cooper J, et al. Br J Pharmacol. 1997, 122: 546-550. [18]): > 30 µM; EC50 [9, 15]: > 10 µM; activity in cAMP assays (Jurkat-T cells; Jurkat-T cells (A2B ≥ A2A), ref [47]): nearly inactive |
| CCNC(=O)[C@H]1O[C@@H](n2cnc3c(N)ncnc32)[C@H](O)[C@@H]1O [NECA, 5′-N-ethylcarboxamidoadenosine] | 9.12 µM | 14 µM | 200 nM | 950 nM | 18 µM | 469 nM | increased coronary flow in A2B knockout (KO) mice to a significantly higher degree than in wildtype (WT) mice | 6.6 µM | 5.8 µM | 1130 nM | induction of cAMP accumulation [12]: concentration-dependently induced cAMP accumulation; EC50 ([3]; high-affinity component, ref Hide I, et al. Mol Pharmacol. 1992, 41: 352-359. [26], read-out: EC50, biphasic: KH): 66 nM; EC50 ([3]; low-affinity component, ref Hide I, et al. Mol Pharmacol. 1992, 41: 352-359. [26], read-out: EC50, biphasic: KL): 7500 nM; induction of cAMP accumulation [13]: concentration-dependently induced cAMP accumulation; EC50 (HEK-A2B cells, A2B ≥ A2A; [15]): 21 nM; EC50 (HEK-A2B cells, A2B ≥ A2A; ref Hinz S, et al. J Pharmacol Exp Ther. 2014, 3: 427-436. [15]): 200 nM; EC50 (HEK-A2B cells, A2B ≥ A2A; ref Linden J, et al. Mol Pharmacol. 1999, 56: 705-713. [19]): 28.6 nM |
